Legend:
[1] = cited from earlier work; for pH of 0.1 M aqueous sol'n: 0.1M aqueous solution, 25° C.
[2] = In vitro skin permeation of diclofenac sodium transdermal delivery systems, Franz diffusion cells; assay type: in vitro ADME, human; conditions: 24 hours; for cumulative amount of diclofenac that permeated through the skin: 32° C.
Experimental: Each formulation was coated on a release liner and dried in an oven at 65° C. for two hours to remove water and other solvents. The dried drug-in-adhesive/release liner film was laminated to a backing film, and the backing/drug-in-adhesive/release liner laminate was then cut into discs with a diameter of 9/16 inch. The theoretical weight percent weight of each component of the system, after drying (calculated assuming all volatile ingredients were completely removed during drying), is set forth in Table 3.
The release liner was peeled away from the disc laminate. […] The skin/adhesive/backing laminate was clamped between the donor and receiver chambers of the diffusion cell with the skin side facing the receiver solution. […] All cells and receiver solution were maintained at 32° C. for the 24-hour duration of the study.

SMILES	pH of 0.1 M aqueous sol'n [1]	pKa [1]	other results
CCN1CCCCC1 [1-ethylpiperidine]	11.73	10.45	–
CCCCN [n-butylamine]	11.81	–	–
C1CNCCN1 [piperazine]	11.42	–	–
CC1CCCCN1C (stereo not shown) [1,2-dimethylpiperidine]	11.61	10.22	–
NC(N)=O [urea]	6.55	–	–
CCCCCC(C)N (stereo not shown) [2-aminoheptane]	11.85	10.70	–
Cc1cccnc1C [2,3-dimethylpyridine]	9.79	–	–
CC1CNC(C)CN1 (stereo not shown) [2,5-dimethylpiperazine]	11.33	9.66	–
NCc1ccccc1 [benzylamine]	11.17	–	–
NCCN [ethylenediamine]	–	9.93	–
O=C(O)Cc1ccccc1Nc1c(Cl)cccc1Cl [diclofenac, diclofenac sodium]	–	–	cumulative amount of diclofenac that permeated through the skin ([2]; N-methyl glucamine added (Formulation H, with NaOH)): 1.54 mg/cm^2; cumulative amount of diclofenac that permeated through the skin ([2]; monoethanolamine added (Formulation G, with NaOH)): 1.57 mg/cm^2; cumulative amount of diclofenac that permeated through the skin ([2]; no nitrogenous base added (Formulation E, NaOH only)): 0.90 mg/cm^2; cumulative amount of diclofenac permeated, times higher than when no nitrogenous base was present ([2]; system containing monoethanolamine vs no nitrogenous base): about 1.7 times; cumulative amount of diclofenac that permeated through the skin ([2]; triethanolamine added (Formulation F, with NaOH)): 1.08 mg/cm^2
COc1ccccn1 [2-methoxypyridine]	8.14	–	–
NC1CCCCC1 [cyclohexylamine]	11.82	–	–
Cc1ccncc1 [γ-picoline]	–	5.99	–
NCCc1ccccc1 [phenethylamine]	11.42	–	–
NCCCCN [1,4-butanediamine]	11.90	–	–
COc1ccncc1 [4-methoxypyridine]	9.79	6.58	–
CC(N)c1ccccc1 (stereo not drawn) [α-methyl-benzylamine]	11.38	9.75	–
CC(C)N [isopropylamine]	11.80	10.60	–
CN1CCCC1 [N-methylpyrrolidine]	11.73	10.46	–
Cc1cc(C)nc(C)c1 [2,4,6-trimethylpyridine]	–	6.69	–
COc1cccnc1 [3-methoxypyridine]	8.89	4.78	–
Cc1c[nH]c(C)n1 [2,4-dimethylimidazole]	10.68	8.36	–
CC1CCCN1C (stereo not shown) [1,2-dimethylpyrrolidine]	11.60	10.20	–
Cc1ccnc(C)c1 [2,4-dimethylpyridine]	10.00	6.99	–
Cc1cncc(C)c1 [3,5-dimethylpyridine]	9.58	–	–
c1ccc2[nH]cnc2c1 [benzitnidazole]	9.24	5.48	–
Nc1ccc(N)nc1 [2,5-diaminopyridine]	9.74	6.48	–

Source: US20050244485A1, “Transdermal administration of hydrophilic drugs using a basic permeation enhancer composition” (priority 2003, published 2005)
